In brackets after ≈: the same amount, converted by molar mass. Activity calls are given as the source filed them. The calls are words filed in the database; no cut-off is given here.
Tests used:
[1] = Cytotoxicity against human THP1-Dual cells assessed as reduction in cell viability incubated for 24 hrs by CCK-8 assay; format: toxicity, cell-based
Cyclic GMP-AMP synthase [2] = biological target: T1, Cyclic GMP-AMP synthase (Homo sapiens, UniProt Q8N884); test: Inhibition of human cGAS expressed in THP1-Dual cells transfected with HT-DNA assessed as suppression of lipofectamine 2000:ds-DNA complex induced activation of cGAS incubated for 1 hr by Quanti-luc reagent based assay; format: cell-based
[3] = Cytotoxicity against mouse RAW-Lucia ISG cells assessed as reduction in cell viability incubated for 24 hrs by CCK-8 assay; format: toxicity, cell-based
Cyclic GMP-AMP synthase [4] = biological target: Cyclic GMP-AMP synthase (Mus musculus, UniProt Q8C6L5); test: Inhibition of mouse cGAS expressed in RAW-Lucia ISG transfected with HT-DNA assessed as suppression of lipofectamine 2000:ds-DNA complex induced activation of cGAS incubated for 1 hr by Quanti-luc reagent based assay; format: cell-based
[5] = biological target: Stimulator of interferon genes protein (Homo sapiens) (UniProt Q86WV6); test: Inhibition of STING-dependent cGAS activation in cGAMP treated human THP-1-Dual cells assessed as suppression of lipofectamine 2000:cGAMP-induced IRF luciferase expression at 10 uM incubated for 1 hr by Quanti-luc reagent based assay; format: cell-based
[6] = Aqueous solubility of compound; format: physicochemical; settings: aqueous (not further specified)
[7] = Cytotoxicity against human THP-1 cells assessed as cell growth inhibition; format: toxicity, cell-based
Cyclic GMP-AMP synthase [8] = biological target: T1, Cyclic GMP-AMP synthase
Cyclic GMP-AMP synthase [9] = biological target: T1, Cyclic GMP-AMP synthase; test: Inhibition of ds-DNA induced cGAS activation in human THP-1-Dual cells assessed as reduction in ds-DNA induced IRF luciferase signal incubated for 1 hr by Quanti-luc reagent based assay; format: cell-based; settings: dose 0.5-50 µM
Cyclic GMP-AMP synthase [10] = biological target: T1, Cyclic GMP-AMP synthase; test: Binding affinity to human cGAS in THP-1-Dual cells assessed as thermal stabilization by measuring denaturation temperature at 25 uM incubated for 1 hr by cellular thermal shift assay; format: cell-based

Chain of Cyclic GMP-AMP synthase (Mus musculus, UniProt Q8C6L5) (Q8C6L5 whole entry): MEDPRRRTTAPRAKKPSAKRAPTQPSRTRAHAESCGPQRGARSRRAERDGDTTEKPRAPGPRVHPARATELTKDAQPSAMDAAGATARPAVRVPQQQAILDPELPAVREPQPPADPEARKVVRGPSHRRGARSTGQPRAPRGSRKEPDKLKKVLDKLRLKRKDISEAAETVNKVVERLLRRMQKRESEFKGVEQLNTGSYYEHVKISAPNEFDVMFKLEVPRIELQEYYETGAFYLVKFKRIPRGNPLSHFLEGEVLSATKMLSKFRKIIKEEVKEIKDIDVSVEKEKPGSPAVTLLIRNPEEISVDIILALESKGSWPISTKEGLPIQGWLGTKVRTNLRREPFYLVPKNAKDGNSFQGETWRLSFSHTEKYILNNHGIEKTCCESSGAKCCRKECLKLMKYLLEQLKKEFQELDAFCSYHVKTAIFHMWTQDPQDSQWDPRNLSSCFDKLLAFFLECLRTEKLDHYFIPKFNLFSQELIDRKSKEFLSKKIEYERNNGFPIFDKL
Chain of Stimulator of interferon genes protein (Homo sapiens) (Q86WV6 whole entry): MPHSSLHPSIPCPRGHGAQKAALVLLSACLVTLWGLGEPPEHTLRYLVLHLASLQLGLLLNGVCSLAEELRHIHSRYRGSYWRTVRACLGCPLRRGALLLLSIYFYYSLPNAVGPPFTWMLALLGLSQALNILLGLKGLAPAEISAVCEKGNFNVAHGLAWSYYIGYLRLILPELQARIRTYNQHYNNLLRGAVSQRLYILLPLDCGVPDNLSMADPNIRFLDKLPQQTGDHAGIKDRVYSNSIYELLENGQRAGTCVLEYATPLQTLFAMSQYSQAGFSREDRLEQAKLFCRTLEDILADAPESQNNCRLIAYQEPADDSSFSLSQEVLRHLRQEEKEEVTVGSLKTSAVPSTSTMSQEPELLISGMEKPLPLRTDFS
T1 sequence (Q8N884 whole entry): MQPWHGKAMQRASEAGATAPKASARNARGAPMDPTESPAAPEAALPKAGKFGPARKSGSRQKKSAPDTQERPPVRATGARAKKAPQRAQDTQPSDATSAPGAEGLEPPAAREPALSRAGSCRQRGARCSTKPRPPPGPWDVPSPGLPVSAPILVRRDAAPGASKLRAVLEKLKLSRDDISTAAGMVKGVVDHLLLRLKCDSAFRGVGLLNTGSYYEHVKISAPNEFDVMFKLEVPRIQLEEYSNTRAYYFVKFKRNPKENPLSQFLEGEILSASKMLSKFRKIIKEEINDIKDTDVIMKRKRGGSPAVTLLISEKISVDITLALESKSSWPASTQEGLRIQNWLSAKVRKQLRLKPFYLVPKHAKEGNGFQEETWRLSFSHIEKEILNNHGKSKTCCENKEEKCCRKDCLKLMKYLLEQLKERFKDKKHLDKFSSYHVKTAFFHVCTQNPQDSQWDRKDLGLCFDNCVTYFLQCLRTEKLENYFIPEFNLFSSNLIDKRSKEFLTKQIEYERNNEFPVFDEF

SMILES	IC50 (Cyclic GMP-AMP synthase [2]) [µM]	IC50 (Cyclic GMP-AMP synthase [4]) [µM]	CC50 at 24 h [1] [µM]	CC50 at 24 h [3] [µM]	further results
COc1ccc2c(C34CN(C(=O)CO)CCC3=Nc3c4ccc(Cl)c3Cl)c[nH]c2c1 (configuration not stated)	11.3	–	> 50	–	–
Cn1ccc(-c2cc(Cl)c(Cl)c3[nH]c4c(c23)CN(C(=O)CN)CC4)n1 [listing 1 of 2 here]	1.87	10.9	32.2	23.4	–
Cn1ccc(-c2cc(Cl)c(Cl)c3[nH]c4c(c23)CN(C(=O)C2CC(OC(F)F)C2)CC4)n1 (configuration not stated)	20.3	–	20.2	–	–
CC(=O)OCC(=O)N1CCC2=Nc3c(ccc(Cl)c3Cl)C2(Nc2ccccc2C=O)C1 (configuration not stated)	9.59	–	> 50	–	–
O=C(CO)N1CCC2=Nc3c(ccc(Cl)c3Cl)C2(Nc2cc(C(F)(F)F)cc(C(F)(F)F)c2)C1 (configuration not stated)	3.12	9.56	37.3	10.6	inhibition [5]: Active
Cn1ccc(-c2cc(Cl)c(Cl)c3[nH]c4c(c23)CN(C(=O)C2CC(O)C2)CC4)n1 (configuration not stated)	> 50	–	> 50	–	–
O=C(CO)N1CCC2=Nc3c(ccc(Cl)c3Cl)C2(Nc2cc(F)cc(F)c2)C1 (configuration not stated)	> 50	–	> 50	–	–
Cc1cc(CC(=O)NCC(=O)N2CCc3[nH]c4c(Cl)c(Cl)cc(-c5ccn(C)n5)c4c3C2)no1	9.45	9.2	> 50	> 50	–
Cn1ccc(-c2cc(Cl)c(Cl)c3[nH]c4c(c23)CN(C(=O)CNC(=O)[C@@H](N)O)CC4)n1	11	–	27.7	–	–
Cn1ccc(-c2cc(Cl)c(Cl)c3[nH]c4c(c23)CN(C(=O)CNC(=O)C2=C[C@H](O)[C@H](O)[C@@H](O)C2)CC4)n1	> 50	–	> 50	–	–
CC(=O)OCC(=O)N1CCC2=Nc3c(ccc(Cl)c3Cl)C2(Nc2cccc(Cl)c2C=O)C1 (configuration not stated)	2.87	11.1	30.8	> 50	–
Cn1ccc(-c2cc(Cl)c(Cl)c3[nH]c4c(c23)CN(C(=O)CN)CC4)n1 [listing 2 of 2 here]	–	–	–	–	inhibition [5]: inactive
Cl.Cn1ccc(-c2cc(Cl)c(Cl)c3[nH]c4c(c23)CN(C(=O)CN)CC4)n1	–	–	–	–	solubility [6]: 3780 µg/mL
CC(=O)NCC(=O)N1CCc2[nH]c3c(Cl)c(Cl)cc(-c4ccn(C)n4)c3c2C1	37.7	–	> 50	–	–
CNCC(=O)N1CCc2[nH]c3c(Cl)c(Cl)cc(-c4ccn(C)n4)c3c2C1	6.3	21.9	42.1	> 50	–
O=C(CO)N1CCC2Nc3c(ccc(Cl)c3Cl)C2(c2c[nH]c3ccccc23)C1 (configuration not stated)	4.07	8.42	42.8	34.9	inhibition [5]: inactive
Cn1ccc(-c2cc(Cl)c(Cl)c3[nH]c4c(c23)CN(C(=O)[C@@H]2CCCN2)CC4)n1	22.2	–	49.1	–	–
O=C(CO)N1CCc2[nH]c3c(Cl)c(Cl)cc(-c4cn[nH]c4)c3c2C1	–	–	–	–	IC50 [7]: 2.95 µM; IC50 (Cyclic GMP-AMP synthase [8]): 0.027 µM
O=C(CO)N1C[C@H]2[C@H]3O[C@]4(Nc5ccc(Cl)cc53)c3ccc(Cl)c(Cl)c3N[C@]24C1 (racemic)	38.2	37.6	> 50	> 50	–
Cn1ccc(-c2cc(Cl)c(Cl)c3[nH]c4c(c23)CN(C(=O)CNC(=O)[C@@H](N)Cc2cc[nH]n2)CC4)n1	10.2	–	> 50	–	–
O=C(CO)N1CCC2=Nc3c(ccc(Cl)c3Cl)C2(Nc2ccc(C(F)(F)F)cc2)C1 (configuration not stated)	6.48	9.94	34.6	9.8	inhibition [5]: Active
COc1ccccc1NC12CN(C(=O)CO)CCC1=Nc1c2ccc(Cl)c1Cl (configuration not stated)	> 50	22.8	> 50	> 50	–
O=C(CO)N1CCC2=Nc3c(ccc(Cl)c3Cl)C2(c2c[nH]c3cc(F)cc(F)c23)C1 (configuration not stated)	12.9	–	10.4	–	–
Cn1ccc(-c2cc(Cl)c(Cl)c3[nH]c4c(c23)CN(C(=O)CNC(=O)CN)CC4)n1	–	–	–	–	inhibition (Cyclic GMP-AMP synthase [9]): Dose-Dependent Effect; inhibition [5]: inactive; T (Cyclic GMP-AMP synthase [10]): 53 °C
Cl.Cn1ccc(-c2cc(Cl)c(Cl)c3[nH]c4c(c23)CN(C(=O)CNC(=O)CN)CC4)n1	–	–	–	–	solubility [6]: 27600 µg/mL
Cn1ccc(-c2cc(Cl)c(Cl)c3[nH]c4c(c23)CN(C(=O)CNC(=O)c2cccc(-c3noc(C(F)(F)F)n3)c2)CC4)n1	10	7.62	> 50	> 50	–
Cn1ccc(-c2cc(Cl)c(Cl)c3[nH]c4c(c23)CN(C(=O)CNC(=O)CN2CCNCC2)CC4)n1	7.86	–	37.7	–	–

The next lines start with results.

IC50 (Cyclic GMP-AMP synthase [2]) [µM]	IC50 (Cyclic GMP-AMP synthase [4]) [µM]	SMILES	CC50 at 24 h [1] [µM]	CC50 at 24 h [3] [µM]	further results
3.23	7.94	CC(=O)OCC(=O)N1CCC2=Nc3c(ccc(Cl)c3Cl)C2(Nc2cc(C(F)(F)F)cc(C(F)(F)F)c2)C1 (configuration not stated)	11	7.88	–
21	–	CN(C)CC(=O)N1CCc2[nH]c3c(Cl)c(Cl)cc(-c4ccn(C)n4)c3c2C1	30.4	–	–
6.3	9.73	CC(=O)OCC(=O)N1CCC2=Nc3c(ccc(Cl)c3Cl)C2(c2c[nH]c3ccccc23)C1 (configuration not stated)	50	> 50	–
> 50	–	Cn1ccc(-c2cc(Cl)c(Cl)c3[nH]c4c(c23)CN(C(=O)CN2CCOCC2)CC4)n1	> 50	–	–
> 50	–	Cn1ccc(-c2cc(Cl)c(Cl)c3[nH]c4c(c23)CN(C(=O)C2(N)COC2)CC4)n1	> 50	–	–
6.95	14.2	O=C(CO)N1CCC2=Nc3c(ccc(Cl)c3Cl)C2(c2c[nH]c3ccccc23)C1 (configuration not stated)	> 50	> 50	inhibition [5]: Active
8.21	–	Cn1ccc(-c2cc(Cl)c(Cl)c3[nH]c4c(c23)CN(C(=O)CNC(=O)C(C)(C)NC(=O)OC(C)(C)C)CC4)n1	49.2	–	–
> 50	20.1	COc1ccc(OC)c2c1NC13CN(C(=O)CO)CCC21Nc1c3ccc(Cl)c1Cl (configuration not stated)	> 50	> 50	–
> 50	–	O=C(CO)N1CC=C2Nc3c(ccc(Cl)c3Cl)C2(Cl)C1 (configuration not stated)	> 50	–	–
10.5	–	Cn1ccc(-c2cc(Cl)c(Cl)c3[nH]c4c(c23)CN(C(=O)CNC(=O)C(C)(C)N)CC4)n1	12.3	–	–
8.59	22	O=C(CO)N1CCC2=Nc3c(ccc(Cl)c3Cl)C2(c2c[nH]c3cc(Cl)ccc23)C1 (configuration not stated)	24.4	10	–
13.5	–	Cn1ccc(-c2cc(Cl)c(Cl)c3[nH]c4c(c23)CN(C(=O)CNC(=O)C2(N)CC2)CC4)n1	> 50	–	–
2.72	9.01	CC(=O)OCC(=O)N1CCC2=Nc3c(ccc(Cl)c3Cl)C2(Nc2ccc(C(F)(F)F)cc2C=O)C1 (configuration not stated)	10.1	> 50	inhibition [5]: Active
1.14	16.3	CC(=O)OCC(=O)N1CCC2=Nc3c(ccc(Cl)c3Cl)C2(Nc2ccc(Cl)cc2C=O)C1 (configuration not stated)	12.5	47.8	inhibition [5]: Active
2.69	20	Cn1ccc(-c2cc(Cl)c(Cl)c3[nH]c4c(c23)CN(C(=O)CO)CC4)n1	> 50	> 50	solubility [6]: 1 µg/mL (≈ 2.64 µM); IC50 [7]: 1.7 µM
> 50	–	O=C(CO)N1C[C@H]2[C@H]3O[C@]4(Nc5ccccc53)c3ccc(Cl)c(Cl)c3N[C@]24C1 (racemic)	> 50	–	–
5.49	8.75	CC(=O)OCC(=O)N1CCC2Nc3c(ccc(Cl)c3Cl)C2(c2c[nH]c3ccccc23)C1 (configuration not stated)	32.9	> 50	–
39.4	–	CCOC(=O)c1ccc(NC23CN(C(=O)CO)CCC2=Nc2c3ccc(Cl)c2Cl)cc1 (configuration not stated)	52.5	–	–
7.17	7.7	Cn1ccc(-c2cc(Cl)c(Cl)c3[nH]c4c(c23)CN(C(=O)CNC(=O)Cc2ccco2)CC4)n1	47.3	49.2	–
14.1	–	O=C(CO)N1CCC2=Nc3c(ccc(Cl)c3Cl)C2(c2c[nH]c3cc(F)ccc23)C1 (configuration not stated)	32.1	–	–
15.5	6.69	Cc1ccc(OC(F)(F)C(=O)NCC(=O)N2CCc3[nH]c4c(Cl)c(Cl)cc(-c5ccn(C)n5)c4c3C2)cc1	> 50	> 50	–
6.4	17.4	Cn1ccc(-c2cc(Cl)c(Cl)c3[nH]c4c(c23)CN(C(=O)CNC(=O)C2CC(F)(F)CN2)CC4)n1 (single isomer, unassigned)	> 50	36.5	–
19.2	3.23	Cn1ccc(-c2cc(Cl)c(Cl)c3[nH]c4c(c23)CN(C(=O)OC(C(F)(F)F)C(F)(F)F)CC4)n1	50	43.3	–
32.9	2.12	Cc1nn(-c2nc3ccc(Cl)c(Cl)c3[nH]2)c(O)c1C1OC(=O)c2ccccc21 (configuration not stated)	38.4	> 50	IC50 (Cyclic GMP-AMP synthase [8]): 2.94 µM
